These compounds were tested on HCV 1b-377-neo replicon cells (assay: HCV replicon assay, HCV 1b-377-neo replicon cells (1b FRET)). Settings: HCV 1b-377-neo replicon cells; HCV 1b genotype; read-out: EC50 range against HCV 1b (Table 2, Range).
Type: cell-based, Hepatitis C virus genotype 1b
Outline: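 FRET-based replicon assay in HCV 1b-377-neo cells, including a comparison line carrying the NS5A Y2065H mutation that confers resistance to a reference compound.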

CN1CCN(C(C(=O)N2CCC[C@H]2c2ncc(-c3ccc(-c4ccc(-c5c[nH]c([C@@H]6CCCN6C(=O)[C@H]6CCCO6)n5)cc4)cc3)[nH]2)c2ccccc2)CC1 (stereo partly drawn) [Example 103-4, 1-methyl-4-(2-oxo-1-phenyl-2-((2S)-2-(5-(4′-(2-((2S)-1-((2R)-tetrahydro-2-furanylcarbonyl)-2-pyrrolidinyl)-1H-imidazol-4-yl)-4-biphenylyl)-1H-imidazol-2-yl)-1-pyrrolidinyl)ethyl)piperazine] and COC(=O)NC(C(=O)N1CCCC1c1nc(-c2ccc(-c3ccc(-c4cnc(C5CCCN5C(=O)CN5CCCC5)[nH]4)cc3)cc2)c[nH]1)c1ccccc1 [Example 58, methyl ((1R)-2-oxo-1-phenyl-2-((2S)-2-(5-(4′-(2-((2S)-1-(1-pyrrolidinylacetyl)-2-pyrrolidinyl)-1H-imidazol-5-yl)-4-biphenylyl)-1H-imidazol-2-yl)-1-pyrrolidinyl)ethyl)carbamate] fall in the same range of EC50: 0.001 to 0.999 nM for the first, 0.001 to 0.999 nM for the second.

Same assay, conditions: Hepatitis C virus, HCV 1b-377-neo replicon cells; HCV 1b genotype; read-out: EC50 range against HCV 1b (Table 2, Range)

First: CCN(CC)[C@@H](C(=O)N1CCC[C@H]1c1ncc(-c2ccc(-c3ccc(-c4cnc([C@@H]5CCCN5C(=O)[C@H](C)NC(=O)OC)[nH]4)cc3)cc2)[nH]1)C(C)C [Example M101, methyl ((1S)-2-((2S)-2-(5-(4′-(2-((2S)-1-(N,N-diethyl-D-valyl)-2-pyrrolidinyl)-1H-imidazol-5-yl)-4-biphenylyl)-1H-imidazol-2-yl)-1-pyrrolidinyl)-1-methyl-2-oxoethyl)carbamate]
Second: CCN(CC)[C@@H](C(=O)N1CCC[C@H]1c1ncc(-c2ccc(-c3ccc(-c4cnc([C@@H]5CCCN5C(=O)C[C@@H](NC(=O)OC)C(C)C)[nH]4)cc3)cc2)[nH]1)c1ccccc1 [cj-52, methyl ((1R)-3-((2S)-2-(5-(4′-(2-((2S)-1-((2R)-2-(diethylamino)-2-phenylacetyl)-2-pyrrolidinyl)-1H-imidazol-5-yl)-4-biphenylyl)-1H-imidazol-2-yl)-1-pyrrolidinyl)-1-isopropyl-3-oxopropyl)carbamate]
The EC50 of the first is higher: 100 to 999 nM for the first, 0.001 to 0.999 nM for the second. The second is the more potent here.

CCN(CC)[C@H](C)C(=O)N1CCC[C@H]1c1ncc(-c2ccc(-c3ccc(-c4cnc([C@@H]5CCCN5C(=O)[C@@H](NC(=O)OC)C(C)C)[nH]4)c(F)c3)cc2F)[nH]1 [Example D59, methyl ((1S)-1-(((2S)-2-(5-(4′-(2-((2S)-1-(N,N-diethyl-D-alanyl)-2-pyrrolidinyl)-1H-imidazol-5-yl)-3,3′-difluoro-4-biphenylyl)-1H-imidazol-2-yl)-1-pyrrolidinyl)carbonyl)-2-methylpropyl) carbamate] and COC(=O)N[C@H](C(=O)N1CCC[C@H]1c1ncc(-c2ccc(-c3ccc(-c4cnc([C@@H]5CCCN5C(=O)[C@@H](Nc5ncccn5)C(C)C)[nH]4)cc3)cc2)[nH]1)C(C)C [cj-11, methyl ((1S)-2-methyl-1-(((2S)-2-(5-(4′-(2-((2S)-1-(N-2-pyrimidinyl-L-valyl)-2-pyrrolidinyl)-1H-imidazol-5-yl)-4-biphenylyl)-1H-imidazol-2-yl)-1-pyrrolidinyl)carbonyl)propyl)carbamate] fall in the same range of EC50: 0.001 to 0.999 nM for the first, 0.001 to 0.999 nM for the second.

COC(=O)N[C@@H](C(=O)N1CCC[C@H]1c1ncc(-c2ccc(-c3ccc(-c4cnc([C@@H]5CCCN5C(=O)[C@@H](c5ccccc5)N(C)C)[nH]4)cc3)cc2)[nH]1)c1ccccc1Cl [Example 107-40, methyl ((1R)-1-(2-chlorophenyl)-2-((2S)-2-(5-(4′-(2-((2S)-1-((2R)-2-(dimethylamino)-2-phenylacetyl)-2-pyrrolidinyl)-1H-imidazol-5-yl)-4-biphenylyl)-1H-imidazol-2-yl)-1-pyrrolidinyl)-2-oxoethyl) carbamate] and COC(=O)c1nc([C@@H]2CCCN2C(=O)[C@@H](c2ccccc2)N(C)C)[nH]c1-c1ccc(-c2ccc(-c3cnc([C@@H]4CCCN4C(=O)[C@@H](c4ccccc4)N(C)C)[nH]3)cc2)cc1 [Example J17, methyl 2-((2S)-l-((2R)-2-(dimethylamino)-2-phenylacetyl)-2-pyrrolidinyl)-5-(4′-(2-((2S)-1-((2R)-2-(dimethylamino)-2-phenylacetyl)-2-pyrrolidinyl)-1H-imidazol-5-yl)-4-biphenylyl)-1H-imidazole-4-carboxylate] fall in the same range of EC50: 0.001 to 0.999 nM for the first, 0.001 to 0.999 nM for the second.

CC[C@H](NC(=O)OC)C(=O)N1[C@H](c2ncc(-c3ccc(-c4ccc(-c5cnc([C@@H]6C[C@@H]7C[C@@H]7N6C(=O)[C@H](CC)NC(=O)OC)[nH]5)cc4)cc3)[nH]2)C[C@@H]2C[C@@H]21 [Example M126, dimethyl (4,4′-biphenyldiylbis(1H-imidazole-5,2-diyl(1S,3S,5S)-2-azabicyclo[3.1.0]hexane-3,2-diyl((2S)-1-oxo-1,2-butanediyl)))biscarbamate] and C=CC[C@H](NC(=O)OC)C(=O)N1CCC[C@H]1c1ncc(-c2ccc(-c3ccc(-c4cnc([C@@H]5CCCN5C(=O)[C@H](CC=C)NC(=O)OC)[nH]4)cc3)cc2)[nH]1 [Example M25, dimethyl (4,4′-biphenyldiylbis(1H-imidazole-5,2-diyl(2S)-2,1-pyrrolidinediyl((4S)-5-oxo-1-pentene-5,4-diyl)))biscarbamate] fall in the same range of EC50: 1 to 99 nM for the first, 1 to 99 nM for the second.

O=C(C(c1ccccc1)N1CCC(O)CC1)N1CCC[C@H]1c1ncc(-c2ccc(-c3ccc(-c4cnc([C@@H]5CCCN5C(=O)[C@@H](c5ccccc5)N5CCCC5)[nH]4)cc3)cc2)[nH]1 (stereo partly drawn) [Example 97, 1-(2-oxo-1-phenyl-2-((2S)-2-(5-(4′-(2-((2S)-1-((2R)-2-phenyl-2-(1-pyrrolidinyl)acetyl)-2-pyrrolidinyl)-1H-imidazol-5-yl)-4-biphenylyl)-1H-imidazol-2-yl)-1-pyrrolidinyl)ethyl)-4-piperidinol] and CCN(CC)[C@@H](C(=O)N1CCC[C@H]1c1ncc(-c2ccc(-c3ccc(-c4cnc([C@@H]5CCCN5C(=O)[C@H]5CCC[C@@H]5NC(=O)OC)[nH]4)cc3)cc2)[nH]1)c1ccccc1 [cj-116, methyl ((1S,2S)-2-(((2S)-2-(5-(4′-(2-((2S)-1-((2R)-2-(diethylamino)-2-phenylacetyl)-2-pyrrolidinyl)-1H-imidazol-5-yl)-4-biphenylyl)-1H-imidazol-2-yl)-1-pyrrolidinyl)carbonyl)cyclopentyl)carbamate] fall in the same range of EC50: 0.001 to 0.999 nM for the first, 0.001 to 0.999 nM for the second.

COC(=O)NC1CCC(C(=O)N2CCC[C@H]2c2ncc(-c3ccc(-c4ccc(-c5cnc([C@@H]6CCCN6C(=O)C6CCC(NC(=O)OC)C6)[nH]5)cc4)cc3)[nH]2)C1 (stereo in doubt) [cj-149, dimethyl (4,4′-biphenyldiylbis(1H-imidazole-5,2-diyl(2S)-2,1-pyrrolidinediylcarbonyl(1R,3S)-3,1-cyclopentanediyl))biscarbamate] and COC(=O)N[C@@H](CC(=O)N1CCN(C)CC1)C(=O)N1CCC[C@H]1c1ncc(-c2ccc(-c3ccc(-c4cnc([C@@H]5CCCN5C(=O)[C@@H](NC(=O)OC)C(C)C)[nH]4)cc3)cc2)[nH]1 [Example M112, methyl ((1S)-1-(((2S)-2-(5-(4′-(2-((2S)-1-((2S)-2-((methoxycarbonyl)amino)-4-(4-methyl-1-piperazinyl)-4-oxobutanoyl)-2-pyrrolidinyl)-1H-imidazol-5-yl)-4-biphenylyl)-1H-imidazol-2-yl)-1-pyrrolidinyl)carbonyl)-2-methylpropyl)carbamate] fall in the same range of EC50: 1 to 99 nM for the first, 1 to 99 nM for the second.

COC(=O)N[C@H](C(=O)N1CC[C@@H](O)[C@H]1c1ncc(-c2ccc(-c3ccc(-c4cnc([C@@H]5CCCN5C(=O)[C@@H](NC(=O)OC)C(C)C)[nH]4)cc3)cc2)[nH]1)C(C)C [OL-21, methyl ((1S)-1-(((2R)-3-hydroxy-2-(4-(4′-(2-((2S)-1-((2S)-2-((methoxycarbonyl)amino)-3-methylbutanoyl)-2-pyrrolidinyl)-1H-imidazol-4-yl)-4-biphenylyl)-1H-imidazol-2-yl)-1-pyrrolidinyl)carbonyl)-2-methylpropyl)carbamate] and COC(=O)N[C@@H](Cc1ccncc1)C(=O)N1CCC[C@H]1c1ncc(-c2ccc(-c3ccc(-c4cnc([C@@H]5CCCN5C(=O)[C@@H](NC(=O)OC)C(C)C)[nH]4)cc3)cc2)[nH]1 [cj-88, methyl ((1S)-2-((2S)-2-(5-(4′-(2-((2S)-1-((2S)-2-((methoxycarbonyl)amino)-3-methylbutanoyl)-2-pyrrolidinyl)-1H-imidazol-5-yl)-4-biphenylyl)-1H-imidazol-2-yl)-1-pyrrolidinyl)-2-oxo-1-(4-pyridinylmethyl)ethyl)carbamate] fall in the same range of EC50: 0.001 to 0.999 nM for the first, 0.001 to 0.999 nM for the second.

CN(C)[C@@H](C(=O)N1CCC[C@H]1c1ncc(-c2ccc(-c3ccc(-c4cnc([C@@H]5CCCN5C(=O)C5(C(F)(F)F)CC5)[nH]4)cc3)cc2)[nH]1)c1ccccc1 [Example 94-30, (1R)-N,N-dimethyl-2-oxo-1-phenyl-2-((2S)-2-(5-(4′-(2-((2S)-1-((1-(trifluoromethyl)cyclopropyl)carbonyl)-2-pyrrolidinyl)-1H-imidazol-5-yl)-4-biphenylyl)-1H-imidazol-2-yl)-1-pyrrolidinyl)ethanamine] and COC(=O)N[C@@H](C(=O)N1CCC[C@H]1c1ncc(-c2ccc(-c3ccc(-c4cnc([C@@H]5CCCN5C(=O)Cc5cnc[nH]5)[nH]4)cc3)cc2)[nH]1)c1ccccc1 [Example 61, methyl ((1R)-2-((2S)-2-(5-(4′-(2-((2S)-1-(1H-imidazol-5-ylacetyl)-2-pyrrolidinyl)-1H-imidazol-5-yl)-4-biphenylyl)-1H-imidazol-2-yl)-1-pyrrolidinyl)-2-oxo-1-phenylethyl)carbamate] fall in the same range of EC50: 0.001 to 0.999 nM for the first, 0.001 to 0.999 nM for the second.

Work on COC(=O)N[C@@H](C(=O)N1CCC[C@H]1c1ncc(-c2ccc(-c3ncc(-c4cnc([C@@H]5CCCN5C(=O)[C@H](NC(=O)OC)c5ccccc5)[nH]4)cn3)cc2)[nH]1)c1ccccc1 [Example 152j-2, methyl ((1R)-2-((2S)-2-(5-(2-(4-(2-((2S)-1-((2R)-2-((methoxycarbonyl)amino)-2-phenylacetyl)-2-pyrrolidinyl)-1H-imidazol-5-yl)phenyl)-5-pyrimidinyl)-1H-imidazol-2-yl)-1-pyrrolidinyl)-2-oxo-1-phenylethyl)carbamate] yielded an EC50 of 0.001 to 0.999 nM.
